Data published in PubChem BioAssay (NCI).
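Cells were grown in 96-well plates and exposed to each compound for 48 hours at five concentrations; endpoints were interpolated linearly between bracketing concentrations, or set to the highest concentration if not reached. The concentration for full growth arrest is given as TGI.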

Tests used:
Assay in all cases: NCI tumour cell line growth inhibition, 48 h
[1] = system: CAKI-1 renal
[2] = system: CCRF-CEM leukemia
[3] = system: HCC-2998 colon
[4] = system: HCT-116 colon
[5] = system: HS 578T breast
[6] = system: HT29 colon
[7] = system: KM12 colon
[8] = system: MALME-3M melanoma
[9] = system: MDA-MB-435
[10] = system: MDA-N
[11] = system: NCI-H226 lung
[12] = system: PC-3 prostate
[13] = system: RXF 393 renal
[14] = system: SF-268 CNS
[15] = system: SF-295 CNS
[16] = system: SK-MEL-2 melanoma
[17] = system: SK-OV-3 ovarian
[18] = system: SN12C renal
[19] = system: SR leukemia
[20] = system: T-47D breast

Structure (SMILES)	TGI [1] [µM]	TGI [2] [µM]	TGI [3] [µM]	TGI [4] [µM]	TGI [5] [µM]	TGI [6] [µM]	TGI [7] [µM]	TGI [8] [µM]	TGI [9] [µM]	TGI [10] [µM]	TGI [11] [µM]	TGI [12] [µM]	TGI [13] [µM]	TGI [14] [µM]	TGI [15] [µM]	TGI [16] [µM]	TGI [17] [µM]	TGI [18] [µM]	TGI [19] [µM]	TGI [20] [µM]
CC(=O)Oc1c2c(c(CC=C(C)C)c3c1C(=O)C1=C[C@@H]4CC5C(C)(C)OC(C/C=C(/C)C(=O)O)(C4=O)[C@@]15O3)OC(C)(CCC=C(C)C)C=C2 (stereo partly drawn)	0.409	4.75	1.62	0.316	1.44	0.598	0.897	0.558	0.348	0.536	0.834	1.24	0.336	1.56	1.67	0.982	1.91	0.53	53.9	0.439
COc1cc(C(=O)C2C(=O)c3ccccc3C2C2(O)c3ccccc3CC2C(O)c2cc(OC)c(OC)c(OC)c2)cc(OC)c1OC (stereo not drawn)	> 100		> 100	> 100	> 100	> 100	> 100	> 100	> 100	> 100	> 100	> 100	> 100	> 100	> 100	> 100	> 100	> 100	> 100	> 100
CC1CCCCN1CC(=O)c1ccc2c(c1)Sc1ccccc1O2 (stereo not drawn)	37.5	44.4	41.3	30.7	25.7	22.7	30.3	26.8	29.8	32.2	26.4	26.1	31.1	34.2	33	32.4	31.6	37.9	47.8	48
Cn1cc(S(=O)(=O)NC(=O)Nc2ccc(Cl)cc2)c2ccccc21	81	> 100	> 100	> 100	> 100	> 100	> 100	> 100	> 100	> 100	> 100	> 100	> 100	> 100	> 100	> 100	> 100	> 100	> 100	> 100
CC(=O)OC12c3ccccc3-c3ccccc3C1C(C(=O)O)C2(Cl)C(=O)O (stereo not drawn)	> 10	> 10	> 10		> 10	> 10	> 10	> 10	> 10	> 10	> 10	> 10	> 10	> 10	> 10	> 10	> 10	> 10	> 10	> 10
S=C(N/N=C/c1ccccn1)Nc1ccc(Cl)cc1	30.5	1.92	> 57.7	> 88.5	> 67.2	> 100	> 100	> 29	> 100	> 100	3.33	> 100		> 45.7	> 91.7	> 100	10.5	> 100	> 100	> 100
C=CCc1cc(C=C(C#N)C#N)cc(OC)c1O	> 100	> 100		> 100	> 100	> 100	> 100	> 100	> 100	> 100	> 100	> 100	> 100		> 100	> 100	> 100		> 100	> 100
CCOC(=O)C1C(c2ccc(O)c(OC)c2)c2c([nH][nH]c2=O)CC1(C)O (stereo not drawn)	> 100	> 100	> 100	> 100	> 100	> 100	> 100	> 100	> 100	> 100		> 100		> 100	> 100	> 100		> 100	> 100	> 100
CCCCc1ccc(-n2sc3ncc([N+](=O)[O-])cc3c2=O)cc1	26.2	32.4	27.6	21	30.8	26.7	25.4	21.7	52.3	28	51.4	18.7		37.1	27	7.43	> 100	32.7	45.9	25.9
O=C1C(Cl)C2(CC(/C=C/c3ccccc3O)=NN2c2cccc(S(=O)(=O)O)c2)N1c1nc2ccccc2s1 (stereo not drawn)		34.7	29	31	> 100	39	30.3	27.1	31.1	47	51.2	> 100	> 100	43.4		40.8		27.8	58	37.4
O=C1CCCC(=O)N1n1c(Cc2ccccc2)n[nH]c1=O	> 100	> 100		> 100	> 100	> 100	> 100	> 100	> 100	> 100	> 100	> 100	> 100	> 100	> 100	> 100	> 100	> 100	> 100	> 100
Cc1c(-c2ccccc2)c(C#N)c2nnn(C3CCCCC3)c(=O)n12	47.1	> 100	> 100	> 100	> 100	> 100	> 100	> 100	> 100	> 100	> 100	> 100	71.7	> 100	> 100	> 100	> 100	> 100	> 100	> 100
COc1ccc(-c2nnc3n(Cc4ccccc4)c4ccccc4n3c2=O)cc1	45	> 100	> 100	> 100	> 100	> 100	> 100	> 100	> 100	> 100	97.4	32.4	61.8	> 100	41.8	> 100		> 100	> 100	> 100
NC(=O)C(=CNC(=S)Nc1ccc(Cl)c(Cl)c1)C(N)=O	> 100	> 100	> 100	> 100	> 88.9	> 100	> 100	> 100	> 100	> 100	> 100	> 100	> 95.7	> 100	> 100	> 100	> 100	> 100	> 100	> 72.9
O=C(CC(C(=O)c1cccs1)c1cccs1)c1ccccc1Cl (stereo not drawn)	> 100	> 100	> 100	> 100	> 100	> 100	> 100	> 100	> 100	> 100	> 100	> 100		> 100	> 100	> 100	> 100	> 100	> 100	> 100
COc1ccc(P2(=S)SP(=S)(c3ccc(Cl)cc3)S2)cc1 (stereo not drawn)	> 100	> 100	> 100	> 100	> 100	> 100	> 100	> 100	> 100	> 100	> 100	> 100	> 100	> 100	> 100	> 100	> 100	> 100	> 100	> 100
COc1cccc2c3ccccc3c3nc[nH]c3c12	> 100	52.5	> 55.6	> 100	3.75	> 100	> 100	> 100	> 94.6	> 100	> 95	> 100	> 100	> 100	46.4	> 100	> 100	> 100	46.6	> 100
CCOC(=O)NC(C(=O)OCC)(N1CCN(c2cc3c(cc2F)c(=O)c(C(=O)O)cn3CC)CC1)C(F)(F)F (stereo not drawn)	> 100	> 100	> 100	> 100	> 100	> 100	> 100	> 100	> 100	> 100	> 100	> 100	> 100	> 100	> 100	> 100	> 100	> 100	> 100	> 100
Cc1cc(S(=O)(=O)NC2=NC(c3ccccc3)c3cc(Cl)ccc3N2)c(S)cc1Cl (stereo not drawn)	> 100	> 100	> 100	> 100	> 100	> 100	> 100	> 100	> 100	> 100	> 100	> 100	> 100	> 100	> 100		> 100	> 100	> 100	> 100
CC(C)COC(=O)OC(=O)c1ccc(N(C)Cc2cnc3nc(N)nc(N)c3n2)cc1	> 100	> 100	> 100	> 100	> 100	> 100	> 100	> 100	> 100	> 100	> 100	> 100	> 100	> 100	> 100	> 100	> 100	> 100	> 100	> 100
CCOC(=O)C1=c2[nH]c3cccc4cccc(c43)n2C(=O)CC1c1ccccc1 (stereo not drawn)	> 100	> 100	> 100	> 100	> 100	> 100	> 100	> 100	> 100	> 100	> 100	> 100	> 100	> 100	> 100	> 100	> 100	> 100	> 100	> 100
Cc1cc(=O)[nH]c2cc(NC(=O)C(CCCN=C(N)N)NC(=O)OCc3ccccc3)ccc12 (stereo not drawn)	> 100	> 100	> 100	> 100	> 100	> 100	> 100	> 100	> 100	> 100	> 100	> 100		> 100	> 100	> 100	25.6	> 100	> 100	> 100
Cc1ccc(C2SCC(=O)N2c2ccc(-c3ccc(-n4c(-c5ccccc5)nc5ccccc5c4=O)cc3)cc2)cc1 (stereo not drawn)	> 100	> 100	> 100		> 100	> 100	> 100	> 100	> 100	> 100		> 100		> 100	> 100	> 100	> 100	> 100	> 100	> 100
COC(CC1(/C=C/O[Si](C(C)C)(C(C)C)C(C)C)C(=O)N(COCC[Si](C)(C)C)c2ccccc21)OC (stereo not drawn)	> 100	> 100	> 100	71.6	> 100	> 100	> 100		60.9	> 100	> 100	85.2	29.5	38.4	22.5	26.8	51.2	> 100	> 100	> 100
